# What was measured:
# [1] = system: pituitary nerve terminals; assay: Oxytocin release from isolated pituitary nerve terminals (in vitro); assay type: cell-based, mouse
# Protocol: (§1) Cell bodies of hypothalamic neurons and nerve terminals were isolated according to a previously described method (OuYang, W., et al., Brain Res. 1024, 203-21.1 (2004)), then washed with a Locke solution, and homogenized in a solution containing sucrose, 270; HEPES-Tris, 10; and K-EGTA, 0.01 (in mM, pH 7.25). The homogenates were transferred to Petri dishies and left standing for 5 to 8 minutes.
# Isolated cells and nerve terminals were left standing for 6 hours, and then, an experiment was started. The specimens were perfused for 45 minutes, and the perfusate was collected at last 5-minute intervals three times in total for control concentration measurement. Subsequently, the specimens were perfused for additional 5 minutes with Locke solution containing 70 mmol of KC1, and oxytocin concentrations in the obtained perfusates were determined using an oxytocin determination kit and considered as concentrations of oxytocin released by depolarization stimulation.
# isolated nerve terminals = assay: Intracellular Ca2+ concentration in isolated nerve terminals (Oregon Green); assay type: cell-based, mouse; conditions: wild-type mice; 50 mM KCl
# Protocol: as §1
# The cells were incubated with Oregon Green for 1 hour to incorporate the dye into the cells. Subsequently, a fluorescence intensity of the cells was measured using an excitation wavelength of 485 nm and a filter of 538 nm. A fluorescence microspectrophotometer and a condenser with an ARGUS-50 CCD camera were used for the measurement.
# [2] = system: male CD38−/− and wild-type mice; assay: Social memory of male mice (olfactory investigation time on repeated encounters); assay type: in vivo, mouse; conditions: subcutaneous, once, 1 to 10 ng/kg; for social memory (olfactory investigation): young male CD38−/− mice
# [3] = system: postpartum female CD38−/− mice; assay: Maternal behaviors of postpartum female mice (pup retrieval, crouching) after subcutaneous peptide administration; assay type: in vivo, mouse; conditions: once, 1 to 10 ng/kg
# Protocol: Then, each mother mouse was put back at a corner of a cage, and the pups were placed at remaining 3 corners. In this state, behaviors of the mother mouse were observed. A latency to retrieve each pup and a duration of crouching over 3 pups were also measured.
# According to a previously described method (Boccia, M. M., et al., Neurobiol. Learn. Memory 69, 136-146 (1998)), oxytocin (OT) or vasopressin (AVP) dissolved in 0.05 M acetic acid was adjusted to 0.01 μM with saline, and this solution was subcutaneously administered once at a dose of 1 to 10 ng/kg body weight […] to the postpartum female CD38−/− mice (N=6 to 8) described above and young male mice (N=10 per group).
# students = conditions: 194 students, intranasal administration, versus placebo; cited from earlier work
# [4] = target: ADP-ribosyl cyclase activity (Homo sapiens, UniProt P28907, R140W); conditions: mutated CD38 found in human diabetes; cited from earlier work
# Chain of ADP-ribosyl cyclase activity (P28907 whole entry R140W): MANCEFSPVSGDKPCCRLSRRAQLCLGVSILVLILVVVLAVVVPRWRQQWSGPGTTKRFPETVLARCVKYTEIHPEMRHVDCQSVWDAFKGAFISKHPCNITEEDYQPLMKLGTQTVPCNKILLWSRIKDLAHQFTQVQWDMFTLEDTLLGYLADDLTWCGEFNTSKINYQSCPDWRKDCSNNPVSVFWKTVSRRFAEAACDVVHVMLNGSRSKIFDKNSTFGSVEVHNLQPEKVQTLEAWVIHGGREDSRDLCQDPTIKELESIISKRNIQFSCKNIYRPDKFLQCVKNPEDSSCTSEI
compound,measurement,setting,value
8-bromo-cADPR,oxytocin release from the pituitary nerve terminals,"[1]; wild-type mice, 100 μM, high-potassium depolarization",decreased to same levels as those in the CD38−/− mice
same,increase in intracellular Ca2+ concentration,isolated nerve terminals,significantly inhibited
"Nc1ncnc2c1ncn2[C@@H]1O[C@H](COP(=O)(O)OP(=O)(O)OCC2OC([n+]3cccc(C(=O)[O-])c3)C(O)C2O)[C@@H](O)[C@H]1OP(=O)(O)O (stereo in doubt) [NAADP, nicotinate adenine dinucleotide phosphate]",oxytocin release from the pituitary nerve terminals,"[1]; all the mice, initially stimulated with Ca2+, 100 nM given outside the cells",promoted
CO/C1=C\C(C)=C\[C@@H](C)[C@@H](O)[C@@H](C)C/C(C)=C/C=C/[C@H](OC)[C@@H]([C@@H](C)[C@@H](O)[C@H](C)[C@@]2(O)C[C@@H](O)[C@H](C)[C@@H](C(C)C)O2)OC1=O [bafilomycin],oxytocin release from the pituitary nerve terminals,"[1]; wild-type mice, 2 μM, high-potassium depolarization",decreased to same levels as those in the CD38−/− mice
"N=c1c2ncn3c2ncn1[C@@H]1O[C@H](COP(=O)(O)OP(=O)(O)OC[C@H]2O[C@@H]3[C@H](O)[C@@H]2O)[C@@H](O)[C@H]1O [cADPR, cyclic ADP-ribose]",increase of oxytocin release,"[1]; CD38−/− mice, pituitary nerve terminals, 10 μM",2.5 fold
same,oxytocin release from the pituitary nerve terminals,"[1]; all the mice, initially stimulated with Ca2+, 10 μM given outside the cells",promoted
CC[C@H](C)[C@@H]1NC(=O)[C@H](Cc2ccc(O)cc2)NC(=O)[C@@H](N)CSSC[C@@H](C(=O)N2CCC[C@H]2C(=O)N[C@@H](CC(C)C)C(=O)NCC(N)=O)NC(=O)[C@H](CC(N)=O)NC(=O)[C@H](CCC(N)=O)NC1=O [oxytocin],change in behaviors of wild-type mice,[2],no change
same,social memory (olfactory investigation),[2],recovered a social memory
same,"maternal behaviors (latency to retrieve pups, duration of crouching)",[3],recovered to same levels of maternal behaviors as those of the wild-type mice
same,"investment in an investment game (trust, prosocial behavior)",students,invested more money and more frequently invested a maximum allowable than the placebo group
NC(=O)CC[C@@H]1NC(=O)[C@H](Cc2ccccc2)NC(=O)[C@H](Cc2ccc(O)cc2)NC(=O)[C@@H](N)CSSC[C@@H](C(=O)N2CCC[C@H]2C(=O)N[C@@H](CCCN=C(N)N)C(=O)NCC(N)=O)NC(=O)[C@H](CC(N)=O)NC1=O [vasopressin],change in behaviors of wild-type mice,[2],no change
same,social memory (olfactory investigation),[2],no detectable change
"mutated CD38: human CD38 with substitution of tryptophan for arginine at position 140, found in human diabetes",ADP-ribosyl cyclase activity relative to normal,[4],about ⅓
ryanodine,oxytocin release from the pituitary nerve terminals,"[1]; wild-type mice, 200 μM, high-potassium depolarization",decreased to same levels as those in the CD38−/− mice
same,increase in intracellular Ca2+ concentration,isolated nerve terminals,significantly inhibited
